From ChEMBL document CHEMBL1201862, “PubChem BioAssay data set” (2004)
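Growth conditions: 96-well plates. Treatment: test compound, 48 hours, 5 concentrations. Analysis: linear interpolation between bracketing concentrations; unreached endpoints set to highest concentration. Here, GI50 denotes the concentration required for 50% inhibition of growth.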 The source made the active and inactive calls. No stated cut-off is given here; in the data, active = GI50 up to about 1.1 µM and inactive = higher.

Assays:
Assay in all cases: inhibition of tumour cell growth, NCI panel, 48 h
[1] = tested on: RPMI-8226
[2] = tested on: K562
[3] = tested on: IGROV-1
[4] = tested on: LOX IMVI
[5] = tested on: SNB-75
[6] = tested on: MOLT-4
[7] = tested on: ACHN
[8] = tested on: MDA-MB-231
[9] = tested on: DU-145
[10] = tested on: NCI-H23
[11] = tested on: SF-268
[12] = tested on: SF-539
[13] = tested on: A498
[14] = tested on: T47D
[15] = tested on: COLO 205
[16] = tested on: M14
[17] = tested on: HT-29
[18] = tested on: SK-MEL-2
[19] = tested on: PC-3
[20] = tested on: SF-295
[21] = tested on: HL-60
[22] = tested on: TK-10
[23] = tested on: NCI-H226
[24] = tested on: NCI-H460
[25] = tested on: KM12
[26] = tested on: NCI/ADR-RES
[27] = tested on: OVCAR-5
[28] = tested on: BT-549
[29] = tested on: CCRF-CEM
[30] = tested on: HOP-62
[31] = tested on: UACC-257
[32] = tested on: UACC-62
[33] = tested on: SN12C
[34] = tested on: UO-31
[35] = tested on: SNB-19
[36] = tested on: SW-620
[37] = tested on: U-251
[38] = tested on: HCT-116
[39] = tested on: SR
[40] = tested on: HCT-15
[41] = tested on: 786-0
[42] = tested on: OVCAR-3
[43] = tested on: MCF7
[44] = tested on: MDA-N
[45] = tested on: Malme-3M
[46] = tested on: RXF 393
[47] = tested on: SK-OV-3
[48] = tested on: OVCAR-8
[49] = tested on: SK-MEL-5
[50] = tested on: EKVX
[51] = tested on: Hs-578T
[52] = tested on: MDA-MB-435
[53] = tested on: CAKI-1
[54] = tested on: NCI-H522
[55] = tested on: HOP-92
[56] = tested on: SK-MEL-28
[57] = tested on: HCC 2998
[58] = tested on: OVCAR-4
[59] = tested on: A549

SMILES: N/C(S)=N/N=C/c1cc(CN2CCOCC2)c(N)cn1
- GI50 [1]: 79.8 µM (inactive)
- GI50 [2]: 89.5 µM (inactive)
- GI50 [3]: 50.5 µM (inactive)
- GI50 [4]: 29.9 µM (inactive)
- GI50 [5]: 25 µM (inactive)
- GI50 [6]: 48.1 µM (inactive)
- GI50 [7]: 14.1 µM (inactive)
- GI50 [8]: 48.1 µM (inactive)
- GI50 [9]: 28.6 µM (inactive)
- GI50 [10]: 39.4 µM (inactive)
- GI50 [11]: 23.6 µM (inactive)
- GI50 [12]: 27.5 µM (inactive)
- GI50 [13]: 37 µM (inactive)
- GI50 [14]: 85.9 µM (inactive)
- GI50 [15]: 26.8 µM (inactive)
- GI50 [16]: 18.7 µM (inactive)
- GI50 [17]: 50.2 µM (inactive)
- GI50 [18]: 84.3 µM (inactive)
- GI50 [19]: 56.9 µM (inactive)
- GI50 [20]: 36 µM (inactive)
- GI50 [21]: 48.2 µM (inactive)
- GI50 [22]: 43.4 µM (inactive)
- GI50 [23]: 12.7 µM (inactive)
- GI50 [24]: 38.4 µM (inactive)
- GI50 [25]: 23.6 µM (inactive)
- GI50 [26]: 31 µM (inactive)
- GI50 [27]: 60.3 µM (inactive)
- GI50 [28]: 78.5 µM (inactive)
- GI50 [29]: 40.1 µM (inactive)
- GI50 [30]: 30.3 µM (inactive)
- GI50 [31]: 28.6 µM (inactive)
- GI50 [32]: 42.4 µM (inactive)
- GI50 [33]: 62.4 µM (inactive)
- GI50 [34]: 28.2 µM (inactive)
- GI50 [35]: 47.1 µM (inactive)
- GI50 [36]: 62.1 µM (inactive)
- GI50 [37]: 56.8 µM (inactive)
- GI50 [38]: 61.8 µM (inactive)
- GI50 [39]: 44.4 µM (inactive)
- GI50 [40]: 15 µM
- GI50 [41]: 65.2 µM (inactive)
- GI50 [42]: 27.7 µM (inactive)
- GI50 [43]: 31.4 µM (inactive)
- GI50 [44]: 56.1 µM (inactive)
- GI50 [45]: 31.3 µM (inactive)
- GI50 [46]: > 100 µM (inactive)
- GI50 [47]: 53 µM (inactive)
- GI50 [48]: 18.5 µM (inactive)
- GI50 [49]: 35.2 µM (inactive)
- GI50 [50]: 63.1 µM (inactive)
- GI50 [51]: > 100 µM (inactive)
- GI50 [52]: 70.3 µM (inactive)
- GI50 [53]: 45.7 µM (inactive)

SMILES: COc1ccc2c(O)c(S(=O)(=O)c3ccc(C)cc3)c(=O)oc2c1OC
- GI50 [1]: > 100 µM (inactive)
- GI50 [2]: > 100 µM (inactive)
- GI50 [3]: > 100 µM (inactive)
- GI50 [5]: > 100 µM (inactive)
- GI50 [6]: > 100 µM (inactive)
- GI50 [7]: > 100 µM (inactive)
- GI50 [8]: > 100 µM (inactive)
- GI50 [9]: > 100 µM (inactive)
- GI50 [10]: > 100 µM (inactive)
- GI50 [11]: > 100 µM (inactive)
- GI50 [12]: > 100 µM (inactive)
- GI50 [14]: > 100 µM (inactive)
- GI50 [54]: > 100 µM (inactive)
- GI50 [15]: > 100 µM (inactive)
- GI50 [16]: > 100 µM (inactive)
- GI50 [17]: > 100 µM (inactive)
- GI50 [18]: > 100 µM (inactive)
- GI50 [19]: > 100 µM (inactive)
- GI50 [20]: > 100 µM (inactive)
- GI50 [21]: > 100 µM (inactive)
- GI50 [22]: > 100 µM (inactive)
- GI50 [55]: > 100 µM (inactive)
- GI50 [23]: > 100 µM (inactive)
- GI50 [24]: > 100 µM (inactive)
- GI50 [25]: > 100 µM (inactive)
- GI50 [26]: > 100 µM (inactive)
- GI50 [27]: > 100 µM (inactive)
- GI50 [28]: > 100 µM (inactive)
- GI50 [29]: > 100 µM (inactive)
- GI50 [31]: > 100 µM (inactive)
- GI50 [56]: > 100 µM (inactive)
- GI50 [57]: > 100 µM (inactive)
- GI50 [32]: > 100 µM (inactive)
- GI50 [33]: > 100 µM (inactive)
- GI50 [34]: > 100 µM (inactive)
- GI50 [35]: > 100 µM (inactive)
- GI50 [36]: > 100 µM (inactive)
- GI50 [37]: > 100 µM (inactive)
- GI50 [38]: > 100 µM (inactive)
- GI50 [39]: > 100 µM (inactive)
- GI50 [58]: > 100 µM (inactive)
- GI50 [40]: > 100 µM
- GI50 [41]: > 100 µM (inactive)
- GI50 [42]: > 100 µM (inactive)
- GI50 [43]: > 100 µM (inactive)
- GI50 [44]: > 100 µM (inactive)
- GI50 [45]: > 100 µM (inactive)
- GI50 [46]: > 100 µM (inactive)
- GI50 [59]: > 100 µM (inactive)
- GI50 [47]: > 100 µM (inactive)
- GI50 [48]: > 100 µM (inactive)
- GI50 [49]: > 100 µM (inactive)
- GI50 [50]: > 100 µM (inactive)
- GI50 [51]: > 100 µM (inactive)
- GI50 [52]: > 100 µM (inactive)
- GI50 [53]: > 100 µM (inactive)

SMILES: O=C1NN=C2C=C(c3ccc(Cl)cc3)CC(c3cccc(Br)c3)C12 (stereo unspecified)
- GI50 [1]: 26.1 µM (inactive)
- GI50 [2]: 32.9 µM (inactive)
- GI50 [3]: 51.3 µM (inactive)
- GI50 [4]: 46.9 µM (inactive)
- GI50 [5]: 80.9 µM (inactive)
- GI50 [6]: 43.9 µM (inactive)
- GI50 [7]: 33.7 µM (inactive)
- GI50 [8]: 30.4 µM (inactive)
- GI50 [9]: 41.8 µM (inactive)
- GI50 [10]: 87.3 µM (inactive)
- GI50 [11]: 68.5 µM (inactive)
- GI50 [12]: > 100 µM (inactive)
- GI50 [14]: 22.1 µM (inactive)
- GI50 [54]: 38.4 µM (inactive)
- GI50 [15]: > 100 µM (inactive)
- GI50 [16]: > 100 µM (inactive)
- GI50 [17]: > 100 µM (inactive)
- GI50 [18]: 84.5 µM (inactive)
- GI50 [19]: 53.7 µM (inactive)
- GI50 [20]: 91.4 µM (inactive)
- GI50 [21]: 42 µM (inactive)
- GI50 [22]: 54.5 µM (inactive)
- GI50 [55]: 2.74 µM (inactive)
- GI50 [23]: 73.6 µM (inactive)
- GI50 [24]: 40 µM (inactive)
- GI50 [25]: > 100 µM (inactive)
- GI50 [26]: > 100 µM (inactive)
- GI50 [27]: > 100 µM (inactive)
- GI50 [28]: > 100 µM (inactive)
- GI50 [29]: 22 µM (inactive)
- GI50 [30]: > 100 µM (inactive)
- GI50 [31]: 22.4 µM (inactive)
- GI50 [57]: 38.7 µM (inactive)
- GI50 [32]: 87.3 µM (inactive)
- GI50 [33]: > 100 µM (inactive)
- GI50 [34]: 42.8 µM (inactive)
- GI50 [35]: 21.2 µM (inactive)
- GI50 [36]: 81.8 µM (inactive)
- GI50 [37]: 59.2 µM (inactive)
- GI50 [38]: 64.9 µM (inactive)
- GI50 [39]: 38.3 µM (inactive)
- GI50 [58]: > 100 µM (inactive)
- GI50 [40]: 19.3 µM
- GI50 [41]: > 100 µM (inactive)
- GI50 [42]: 42.1 µM (inactive)
- GI50 [43]: 44 µM (inactive)
- GI50 [44]: > 100 µM (inactive)
- GI50 [45]: > 100 µM (inactive)
- GI50 [46]: 62.8 µM (inactive)
- GI50 [59]: 37.4 µM (inactive)
- GI50 [47]: > 100 µM (inactive)
- GI50 [48]: > 100 µM (inactive)
- GI50 [49]: > 100 µM (inactive)
- GI50 [50]: 47.5 µM (inactive)
- GI50 [51]: 19.1 µM (inactive)
- GI50 [52]: 77.1 µM (inactive)
- GI50 [53]: 23.4 µM (inactive)
